Among the test systems are HCC-2998 colon; HCT-116 colon; IGROV1 ovarian; M14 melanoma; OVCAR-4 ovarian; PC-3 prostate; SNB-75 CNS; SW-620 colon; UACC-257 melanoma; UACC-62 melanoma.
What all share (test): NCI-60 cell line screen, 48 h

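Dose response: 5 concentrations. Exposure: 48 h. Format: 96-well plates. Endpoint: linear interpolation; highest concentration if not reached. Abbreviation: GI50, concentration required for 50% inhibition of growth. At the TGI there is no net growth.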

For `COc1ccc(/C=C/c2cc(O)cc(OC3OC(CO)C(O)C(O)C3O)c2)cc1O` (stereo not drawn), the TGI in the test with HCC-2998 colon, in the test on HCT-116 colon, in the test with IGROV1 ovarian, in the test on M14 melanoma, in the test with OVCAR-4 ovarian and in the test with PC-3 prostate was above 100 µM throughout. Besides, the TGI with SNB-75 CNS, with SW-620 colon, in the test on UACC-257 melanoma and in the test on UACC-62 melanoma was above 100 µM throughout.
Take `Nc1ccc(C2(c3ccc(N)cc3)C3CC4CC(C3)CC2C4)cc1`: the TGI in the test on HCC-2998 colon came out at 41 µM; in the test on HCT-116 colon, 42.1 µM; in the test on IGROV1 ovarian, 24.1 µM; in the test with M14 melanoma it was 29.9 µM; in the test with OVCAR-4 ovarian, 32.5 µM; with PC-3 prostate it was 29.3 µM. The values for the TGI in the test with SW-620 colon, with UACC-257 melanoma and in the test with UACC-62 melanoma were 28.8 µM, 36.2 µM and 30.6 µM, respectively.
Turning to `O=C(N[C@H](CO)[C@H](O)c1ccc([N+](=O)[O-])cc1)C(Cl)Cl`, the TGI in the test with HCC-2998 colon, in the test on HCT-116 colon, in the test on IGROV1 ovarian, in the test on M14 melanoma, with OVCAR-4 ovarian and with PC-3 prostate was above 100 µM each time. Moreover, the TGI in the test on SNB-75 CNS, in the test on SW-620 colon, in the test with UACC-257 melanoma and in the test on UACC-62 melanoma was above 100 µM throughout.
Turning to `OCC1NC(CO)C(O)C1O` (stereo not drawn), the TGI with HCC-2998 colon, in the test on HCT-116 colon, in the test on IGROV1 ovarian, in the test with M14 melanoma, in the test on OVCAR-4 ovarian and in the test with PC-3 prostate was above 100 µM throughout. For the same compound, the TGI in the test with SNB-75 CNS, in the test with SW-620 colon, in the test with UACC-257 melanoma and in the test on UACC-62 melanoma was above 100 µM in each case.
With `COc1ncnc2c(Cl)c(C(O)c3ccccc3)c(Cl)cc12` (stereo not drawn), the TGI with HCT-116 colon is 44.1 µM; in the test with IGROV1 ovarian, above 100 µM; in the test with M14 melanoma it was 89.9 µM; in the test with OVCAR-4 ovarian, above 100 µM; in the test on PC-3 prostate it was above 100 µM; in the test with SNB-75 CNS it was 97.8 µM. Moreover, the TGI in the test on SW-620 colon was 92.6 µM; with UACC-257 melanoma it was above 100 µM; in the test on UACC-62 melanoma, 52.1 µM.
With `CCOP(=O)(OCC)C(Cc1c[nH]c2ccccc12)C(=O)O` (stereo not drawn), the TGI in the test with HCC-2998 colon, in the test with HCT-116 colon, in the test on IGROV1 ovarian, in the test on M14 melanoma, with OVCAR-4 ovarian and in the test on PC-3 prostate was above 100 µM in each case. In addition, the TGI in the test on SNB-75 CNS, in the test with SW-620 colon and in the test with UACC-257 melanoma was above 100 µM each time.
As to `O=S1(=O)C[C@H](NCc2ccccc2)[C@H](NCc2ccccc2)C1`, the TGI with HCC-2998 colon, in the test with HCT-116 colon, in the test on IGROV1 ovarian, with M14 melanoma, in the test on OVCAR-4 ovarian and in the test with PC-3 prostate was above 100 µM each time. Further, the TGI in the test with SNB-75 CNS, in the test with SW-620 colon, in the test on UACC-257 melanoma and with UACC-62 melanoma was above 100 µM throughout.
Consider `O=Nn1c2ccccc2c2ccccc21`, for which the TGI in the test on HCC-2998 colon is 60.7 µM; in the test with HCT-116 colon it was above 100 µM; in the test with IGROV1 ovarian, above 100 µM; with M14 melanoma, above 100 µM; with OVCAR-4 ovarian, above 100 µM; in the test on PC-3 prostate, above 100 µM. In addition, the TGI in the test on SNB-75 CNS, in the test on SW-620 colon, in the test with UACC-257 melanoma and with UACC-62 melanoma was above 100 µM in each case.
In the case of `CC(C)N(CCNc1nc(C(Cl)(Cl)Cl)nc2cc(Cl)ccc12)C(C)C`, the GI50 was 1.34 µM with HCC-2998 colon; 1.31 µM in the test on HCT-116 colon; 1.58 µM with M14 melanoma; 1.35 µM in the test with OVCAR-4 ovarian; 1.15 µM with PC-3 prostate; 1.84 µM in the test with SNB-75 CNS. Besides, the values for the GI50 in the test on SW-620 colon, in the test on UACC-257 melanoma and with UACC-62 melanoma were 1.48 µM, 1.93 µM and 1.72 µM, respectively. Moreover, the TGI in the test on HCC-2998 colon is 2.86 µM; in the test with HCT-116 colon, 2.66 µM; in the test on M14 melanoma, 3.19 µM; in the test with OVCAR-4 ovarian, 2.96 µM; in the test with PC-3 prostate, 2.73 µM; with SNB-75 CNS, 3.84 µM. Further, the TGI worked out at 3.09 µM in the test on SW-620 colon, 3.49 µM in the test with UACC-257 melanoma and 3.22 µM in the test with UACC-62 melanoma.
As for `CCOC(=O)CCCc1cc(=O)c2c(C)c3[nH]c4ccc(Cl)cc4c3c(C)c2[nH]1`, the TGI was above 100 µM in the test with HCC-2998 colon; above 100 µM in the test with HCT-116 colon; 86.4 µM in the test on IGROV1 ovarian; above 100 µM in the test with M14 melanoma; 59.1 µM in the test with OVCAR-4 ovarian; 70.6 µM in the test with PC-3 prostate. Moreover, the results for the TGI in the test on SNB-75 CNS, in the test with SW-620 colon and in the test on UACC-257 melanoma were 64 µM, above 100 µM and above 100 µM, respectively.
In the case of `Fc1ccc(C2CC(c3cccc(Nc4ccncc4)c3)=NN2c2ccccc2)cc1` (stereo not drawn), the GI50 in the test on HCC-2998 colon was 1.63 µM; in the test with HCT-116 colon it was 1.49 µM; in the test on IGROV1 ovarian, 1.8 µM; in the test on M14 melanoma, 1.87 µM; with OVCAR-4 ovarian, 1.61 µM; in the test on PC-3 prostate, 1.58 µM. In addition, the GI50 was 1.29 µM with SNB-75 CNS, 1.69 µM with SW-620 colon, 2.09 µM in the test on UACC-257 melanoma and 1.76 µM with UACC-62 melanoma. Also, the TGI in the test on HCC-2998 colon turned out to be 3 µM; with HCT-116 colon, 3.12 µM; in the test with IGROV1 ovarian, 3.49 µM; with M14 melanoma, 3.71 µM; in the test with OVCAR-4 ovarian, 3.07 µM; in the test with PC-3 prostate, 3.18 µM. Moreover, the TGI worked out at 2.87 µM in the test with SNB-75 CNS, 3.21 µM in the test on SW-620 colon, 4.31 µM in the test on UACC-257 melanoma and 3.24 µM with UACC-62 melanoma.
Take `CC=C/C=C/[C@@H]1O[C@](O)([C@H](CC)C(=O)NC/C=C/C=C(\C)[C@@H](OC)[C@@H](C)[C@@H]2O[C@H](/C=C/C=C/C=C(\C)C(=O)c3c(O)cc[nH]c3=O)[C@H](O)[C@@H]2O)[C@H](O)[C@H](O)C1(C)C`: the TGI with HCC-2998 colon, in the test on IGROV1 ovarian, in the test on M14 melanoma, with OVCAR-4 ovarian, in the test with PC-3 prostate and in the test with SNB-75 CNS was above 100 µM in each case. Moreover, the TGI in the test with SW-620 colon, in the test with UACC-257 melanoma and with UACC-62 melanoma was above 100 µM each time.
For the compound `O=C(Nc1ccc(C(F)(F)F)cc1[N+](=O)[O-])C(=O)Nn1c(=S)[nH]c2ccccc2c1=O`, the TGI in the test on HCC-2998 colon, in the test on HCT-116 colon, with IGROV1 ovarian, with OVCAR-4 ovarian, with SNB-75 CNS and in the test with SW-620 colon was above 100 µM in each case. The TGI with UACC-257 melanoma and with UACC-62 melanoma was above 100 µM throughout.
Take `Cc1ccc(S(=O)(=O)NCCCSCCN)cc1`: the TGI in the test with HCC-2998 colon, with HCT-116 colon, with M14 melanoma, with OVCAR-4 ovarian, in the test with PC-3 prostate and in the test with SNB-75 CNS was above 100 µM throughout. The TGI with SW-620 colon and in the test on UACC-257 melanoma was above 100 µM each time.
With `Nc1nc(N)c(N=Nc2ccccc2)c(=O)[nH]1`, the TGI with HCC-2998 colon is above 100 µM; in the test with HCT-116 colon, above 100 µM; with IGROV1 ovarian it was above 100 µM; with M14 melanoma, above 100 µM; in the test with OVCAR-4 ovarian, above 100 µM; in the test on SNB-75 CNS, 23.7 µM. The figures for the TGI in the test on SW-620 colon, in the test on UACC-257 melanoma and in the test with UACC-62 melanoma were above 100 µM, above 100 µM and 69.7 µM, respectively.

The record behind these values is PubChem BioAssay (NCI).
